US20250101023A1, “HETEROARYL DERIVATIVE AND USES THEREOF” (IUCF-HYU (INDUSTRY-UNIVERSITY COOPERATION FOUNDATION …, priority 2022, published 2025)

What was measured:
PDGFRb = PDGFRb (Homo sapiens (Human), UniProt P09619); test: Kinome-wide profiling; assay type: biochemical; conditions: read-out: % Residual Activity (mean)
MLCK2/MYLK2 = MLCK2/MYLK2 (Homo sapiens (Human), UniProt Q9H1R3); test: Kinome-wide profiling; assay type: biochemical; conditions: read-out: % Residual Activity (mean)
p70S6K/RPS6KB1 = p70S6K/RPS6KB1 (Homo sapiens (Human), UniProt P23443); test: Kinome-wide profiling; assay type: biochemical; conditions: read-out: % Residual Activity (mean)
RET = RET (Homo sapiens (Human), UniProt P07949); test: Kinome-wide profiling; assay type: biochemical; conditions: read-out: % Residual Activity (mean)
IRAK2 = IRAK2 (Homo sapiens (Human), UniProt O43187); test: Kinome-wide profiling; assay type: biochemical; conditions: read-out: % Residual Activity (mean)
VRK2 = VRK2 (Homo sapiens (Human), UniProt Q86Y07); test: Kinome-wide profiling; assay type: biochemical; conditions: read-out: % Residual Activity (mean)
CDK17/cyclin Y (PCTK2) = CDK17/cyclin Y (PCTK2) (Homo sapiens (Human), UniProt Q00537); test: Kinome-wide profiling; assay type: biochemical; conditions: read-out: % Residual Activity (mean)
PKCzeta = PKCzeta (Homo sapiens (Human), UniProt Q05513); test: Kinome-wide profiling; assay type: biochemical; conditions: read-out: % Residual Activity (mean)
PKG1b = PKG1b (Homo sapiens (Human), UniProt Q13976); test: Kinome-wide profiling; assay type: biochemical; conditions: read-out: % Residual Activity (mean)
DYRK1B = DYRK1B (Homo sapiens (Human), UniProt Q9Y463); test: Kinome-wide profiling; assay type: biochemical; conditions: read-out: % Residual Activity (mean)
PKD2/PRKD2 = PKD2/PRKD2 (Homo sapiens (Human), UniProt Q9BZL6); test: Kinome-wide profiling; assay type: biochemical; conditions: read-out: % Residual Activity (mean)
Chain of PKD2/PRKD2 (Q9BZL6 whole entry): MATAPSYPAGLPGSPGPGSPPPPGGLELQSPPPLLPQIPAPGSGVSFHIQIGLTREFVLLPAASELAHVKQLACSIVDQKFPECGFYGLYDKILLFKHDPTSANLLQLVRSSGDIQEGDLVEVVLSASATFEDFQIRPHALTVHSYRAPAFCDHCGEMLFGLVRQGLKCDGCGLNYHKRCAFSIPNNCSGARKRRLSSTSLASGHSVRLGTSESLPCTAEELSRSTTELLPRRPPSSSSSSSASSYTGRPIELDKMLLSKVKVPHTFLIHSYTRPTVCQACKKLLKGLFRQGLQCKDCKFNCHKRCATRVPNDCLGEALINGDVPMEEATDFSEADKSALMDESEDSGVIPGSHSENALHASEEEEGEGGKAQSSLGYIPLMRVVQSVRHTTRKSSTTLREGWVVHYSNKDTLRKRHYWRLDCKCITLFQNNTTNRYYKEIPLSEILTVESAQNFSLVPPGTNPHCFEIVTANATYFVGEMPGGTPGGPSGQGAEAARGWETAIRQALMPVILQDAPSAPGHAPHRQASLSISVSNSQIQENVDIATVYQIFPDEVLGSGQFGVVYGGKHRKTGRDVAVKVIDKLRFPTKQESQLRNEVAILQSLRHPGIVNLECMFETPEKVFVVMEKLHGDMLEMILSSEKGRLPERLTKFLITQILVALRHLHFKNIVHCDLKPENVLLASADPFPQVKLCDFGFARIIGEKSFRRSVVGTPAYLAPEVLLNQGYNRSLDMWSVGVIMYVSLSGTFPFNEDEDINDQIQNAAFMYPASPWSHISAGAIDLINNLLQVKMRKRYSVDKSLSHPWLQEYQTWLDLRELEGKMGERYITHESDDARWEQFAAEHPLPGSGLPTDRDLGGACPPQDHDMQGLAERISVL

EPHB4 = EPHB4 (Homo sapiens (Human), UniProt P54760); test: Kinome-wide profiling; assay type: biochemical; conditions: read-out: % Residual Activity (mean)
TIE2/TEK = TIE2/TEK (Homo sapiens (Human), UniProt Q02763); test: Kinome-wide profiling; assay type: biochemical; conditions: read-out: % Residual Activity (mean)
CDK2/cyclin E2 = CDK2/cyclin E2 (Homo sapiens (Human), UniProt P24941); test: Kinome-wide profiling; assay type: biochemical; conditions: read-out: % Residual Activity (mean)
GSK3a = GSK3a (Homo sapiens (Human), UniProt P49840); test: Kinome-wide profiling; assay type: biochemical; conditions: read-out: % Residual Activity (mean)
STK25/YSK1 = STK25/YSK1 (Homo sapiens (Human), UniProt O00506); test: Kinome-wide profiling; assay type: biochemical; conditions: read-out: % Residual Activity (mean)
FAK/PTK2 = FAK/PTK2 (Homo sapiens (Human), UniProt Q05397); test: Kinome-wide profiling; assay type: biochemical; conditions: read-out: % Residual Activity (mean)
ALK = ALK (Homo sapiens (Human), UniProt Q9UM73); test: Kinome-wide profiling; assay type: biochemical; conditions: read-out: % Residual Activity (mean)
ROS/ROS1 = ROS/ROS1 (Homo sapiens (Human), UniProt P08922); test: Kinome-wide profiling; assay type: biochemical; conditions: read-out: % Residual Activity (mean)
PRKX = PRKX (Homo sapiens (Human), UniProt P51817); test: Kinome-wide profiling; assay type: biochemical; conditions: read-out: % Residual Activity (mean)
AXL = AXL (Homo sapiens (Human), UniProt P30530); test: Kinome-wide profiling; assay type: biochemical; conditions: read-out: % Residual Activity (mean)
PLK3 = PLK3 (Homo sapiens (Human), UniProt Q9H4B4); test: Kinome-wide profiling; assay type: biochemical; conditions: read-out: % Residual Activity (mean)
ZIPK/DAPK3 = ZIPK/DAPK3 (Homo sapiens (Human), UniProt O43293); test: Kinome-wide profiling; assay type: biochemical; conditions: read-out: % Residual Activity (mean)
Chain of ZIPK/DAPK3 (O43293 whole entry): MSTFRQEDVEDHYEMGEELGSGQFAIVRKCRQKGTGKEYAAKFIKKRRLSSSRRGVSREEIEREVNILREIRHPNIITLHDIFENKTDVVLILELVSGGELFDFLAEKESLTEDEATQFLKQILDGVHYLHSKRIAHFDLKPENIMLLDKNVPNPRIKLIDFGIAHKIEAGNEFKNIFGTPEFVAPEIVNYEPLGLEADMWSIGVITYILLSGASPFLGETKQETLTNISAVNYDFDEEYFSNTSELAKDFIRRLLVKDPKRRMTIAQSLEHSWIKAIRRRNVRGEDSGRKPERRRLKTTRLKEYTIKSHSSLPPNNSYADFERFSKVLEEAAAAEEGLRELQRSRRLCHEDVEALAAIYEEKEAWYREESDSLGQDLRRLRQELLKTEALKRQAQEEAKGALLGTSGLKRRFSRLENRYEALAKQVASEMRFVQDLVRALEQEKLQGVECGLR

LYN B = LYN B (Homo sapiens (Human), UniProt P07948); test: Kinome-wide profiling; assay type: biochemical; conditions: read-out: % Residual Activity (mean)
CDK1/cyclin A = CDK1/cyclin A (Homo sapiens (Human), UniProt P06493); test: Kinome-wide profiling; assay type: biochemical; conditions: read-out: % Residual Activity (mean)
VRK1 = VRK1 (Homo sapiens (Human), UniProt Q99986); test: Kinome-wide profiling; assay type: biochemical; conditions: read-out: % Residual Activity (mean)
SSTK/TSSK6 = SSTK/TSSK6 (Homo sapiens (Human), UniProt Q9BXA6); test: Kinome-wide profiling; assay type: biochemical; conditions: read-out: % Residual Activity (mean)
Haspin = Haspin (Homo sapiens (Human), UniProt Q8TF76); test: Kinome-wide profiling; assay type: biochemical; conditions: read-out: % Residual Activity (mean)
CDK2/cyclin O = CDK2/cyclin O (Homo sapiens (Human), UniProt P24941); test: Kinome-wide profiling; assay type: biochemical; conditions: read-out: % Residual Activity (mean)
EPHA5 = EPHA5 (Homo sapiens (Human), UniProt P54756); test: Kinome-wide profiling; assay type: biochemical; conditions: read-out: % Residual Activity (mean)
Chain of EPHA5 (P54756 25-1037): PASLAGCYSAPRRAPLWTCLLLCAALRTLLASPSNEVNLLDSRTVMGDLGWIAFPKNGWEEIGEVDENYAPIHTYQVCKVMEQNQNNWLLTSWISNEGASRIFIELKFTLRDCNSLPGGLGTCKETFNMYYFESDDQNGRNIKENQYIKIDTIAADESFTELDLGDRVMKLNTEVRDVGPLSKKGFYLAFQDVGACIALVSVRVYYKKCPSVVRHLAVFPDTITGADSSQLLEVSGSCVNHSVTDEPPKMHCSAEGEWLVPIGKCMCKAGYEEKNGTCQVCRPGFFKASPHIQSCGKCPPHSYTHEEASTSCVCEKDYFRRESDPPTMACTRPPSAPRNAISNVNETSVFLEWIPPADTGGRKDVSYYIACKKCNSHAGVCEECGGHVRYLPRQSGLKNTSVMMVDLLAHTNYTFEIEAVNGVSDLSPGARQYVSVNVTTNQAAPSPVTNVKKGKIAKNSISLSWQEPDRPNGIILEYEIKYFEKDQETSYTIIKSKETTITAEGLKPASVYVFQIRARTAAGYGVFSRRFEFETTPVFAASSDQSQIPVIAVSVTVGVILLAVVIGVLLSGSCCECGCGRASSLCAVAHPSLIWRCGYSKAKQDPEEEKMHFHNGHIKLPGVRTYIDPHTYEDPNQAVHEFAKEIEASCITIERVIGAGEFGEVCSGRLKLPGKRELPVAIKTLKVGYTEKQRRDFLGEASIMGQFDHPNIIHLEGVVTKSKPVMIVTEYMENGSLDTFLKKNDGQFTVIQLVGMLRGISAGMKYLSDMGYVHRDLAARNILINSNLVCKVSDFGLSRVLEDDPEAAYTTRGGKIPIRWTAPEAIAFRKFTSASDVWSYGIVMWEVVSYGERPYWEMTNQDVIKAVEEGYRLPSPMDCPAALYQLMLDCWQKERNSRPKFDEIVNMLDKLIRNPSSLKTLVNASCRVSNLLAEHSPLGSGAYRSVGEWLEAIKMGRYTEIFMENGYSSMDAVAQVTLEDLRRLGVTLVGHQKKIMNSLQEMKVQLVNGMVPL

CAMKK2 = CAMKK2 (Homo sapiens (Human), UniProt Q96RR4); test: Kinome-wide profiling; assay type: biochemical; conditions: read-out: % Residual Activity (mean)
CLK4 = CLK4 (Homo sapiens (Human), UniProt Q9HAZ1); test: Kinome-wide profiling; assay type: biochemical; conditions: read-out: % Residual Activity (mean)
CDK3/cyclin E = CDK3/cyclin E (Homo sapiens (Human), UniProt Q00526); test: Kinome-wide profiling; assay type: biochemical; conditions: read-out: % Residual Activity (mean)
GRK1 = GRK1 (Homo sapiens (Human), UniProt Q15835); test: Kinome-wide profiling; assay type: biochemical; conditions: read-out: % Residual Activity (mean)
Chain of GRK1 (Q15835 whole entry): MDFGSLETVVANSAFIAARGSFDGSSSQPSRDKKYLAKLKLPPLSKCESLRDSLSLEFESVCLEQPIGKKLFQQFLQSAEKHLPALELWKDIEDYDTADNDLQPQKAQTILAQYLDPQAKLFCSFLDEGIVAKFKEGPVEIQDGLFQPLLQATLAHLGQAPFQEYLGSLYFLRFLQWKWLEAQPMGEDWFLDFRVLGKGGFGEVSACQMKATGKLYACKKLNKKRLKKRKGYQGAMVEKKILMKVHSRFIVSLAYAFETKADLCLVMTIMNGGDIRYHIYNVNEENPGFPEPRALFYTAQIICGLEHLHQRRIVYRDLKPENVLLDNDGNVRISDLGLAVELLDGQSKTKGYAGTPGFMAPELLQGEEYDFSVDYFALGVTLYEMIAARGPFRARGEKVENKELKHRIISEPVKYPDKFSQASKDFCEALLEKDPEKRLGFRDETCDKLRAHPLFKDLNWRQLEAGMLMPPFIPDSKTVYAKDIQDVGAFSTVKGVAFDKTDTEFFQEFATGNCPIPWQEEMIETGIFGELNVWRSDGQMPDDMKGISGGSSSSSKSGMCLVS

PKCa = PKCa (Homo sapiens (Human), UniProt P17252); test: Kinome-wide profiling; assay type: biochemical; conditions: read-out: % Residual Activity (mean)
FLT4/VEGFR3 = FLT4/VEGFR3 (Homo sapiens (Human), UniProt P35916); test: Kinome-wide profiling; assay type: biochemical; conditions: read-out: % Residual Activity (mean)
Chain of FLT4/VEGFR3 (P35916 25-1363): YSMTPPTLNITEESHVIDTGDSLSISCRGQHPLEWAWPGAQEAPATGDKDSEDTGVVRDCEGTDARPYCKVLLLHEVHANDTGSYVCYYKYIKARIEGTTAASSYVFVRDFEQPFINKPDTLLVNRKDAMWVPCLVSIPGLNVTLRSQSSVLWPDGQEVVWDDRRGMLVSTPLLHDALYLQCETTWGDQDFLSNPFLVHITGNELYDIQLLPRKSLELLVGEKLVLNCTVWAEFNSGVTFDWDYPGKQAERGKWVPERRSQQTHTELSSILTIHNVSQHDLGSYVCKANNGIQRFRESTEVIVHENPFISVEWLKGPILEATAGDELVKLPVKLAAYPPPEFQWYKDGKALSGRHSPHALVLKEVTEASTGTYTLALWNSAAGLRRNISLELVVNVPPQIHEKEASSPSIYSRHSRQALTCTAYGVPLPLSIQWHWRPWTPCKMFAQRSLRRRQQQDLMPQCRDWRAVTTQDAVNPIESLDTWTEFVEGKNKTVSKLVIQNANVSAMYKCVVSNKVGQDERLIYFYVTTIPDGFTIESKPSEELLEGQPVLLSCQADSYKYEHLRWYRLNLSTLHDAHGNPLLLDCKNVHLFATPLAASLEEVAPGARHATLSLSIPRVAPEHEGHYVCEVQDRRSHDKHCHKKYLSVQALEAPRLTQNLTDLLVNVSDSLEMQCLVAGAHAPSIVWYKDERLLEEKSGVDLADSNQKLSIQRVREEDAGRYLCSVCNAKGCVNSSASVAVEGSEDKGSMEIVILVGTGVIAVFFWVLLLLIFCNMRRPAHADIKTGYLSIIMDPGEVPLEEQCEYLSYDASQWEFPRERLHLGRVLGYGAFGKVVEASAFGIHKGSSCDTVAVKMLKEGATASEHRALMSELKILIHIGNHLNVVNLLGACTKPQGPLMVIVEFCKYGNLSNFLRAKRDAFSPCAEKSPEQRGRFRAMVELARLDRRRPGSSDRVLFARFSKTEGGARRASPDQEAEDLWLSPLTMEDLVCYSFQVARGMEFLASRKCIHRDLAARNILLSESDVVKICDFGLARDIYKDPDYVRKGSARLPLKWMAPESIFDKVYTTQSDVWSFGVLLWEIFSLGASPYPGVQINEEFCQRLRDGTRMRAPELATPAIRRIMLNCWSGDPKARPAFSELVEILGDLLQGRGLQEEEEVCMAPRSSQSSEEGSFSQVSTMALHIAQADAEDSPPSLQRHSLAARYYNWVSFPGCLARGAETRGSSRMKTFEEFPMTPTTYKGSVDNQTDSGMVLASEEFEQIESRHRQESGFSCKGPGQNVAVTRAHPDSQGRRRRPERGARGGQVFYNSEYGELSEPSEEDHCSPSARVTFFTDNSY

NEK5 = NEK5 (Homo sapiens (Human), UniProt Q6P3R8); test: Kinome-wide profiling; assay type: biochemical; conditions: read-out: % Residual Activity (mean)
PKCb2 = PKCb2 (Homo sapiens (Human), UniProt P05771); test: Kinome-wide profiling; assay type: biochemical; conditions: read-out: % Residual Activity (mean)
cyclinK = test: Western blot, cyclinK degradation; assay type: cell-based; conditions: SK-Br3 and HCC1954 cell lines, 40 and 200 nM, 2 hours

## CCn1cnc2c(NCc3ccc(-c4ccccn4)nc3)nc(-c3ccc(N)nc3)nc21 [Example 53, N-([2,2′-bipyridin]-5-ylmethyl)-2-(6-aminopyridin-3-yl)-9-ethyl-9H-purin-6-amine]
PDGFRb
  remaining activity at 10 µM: 34.7%
MLCK2/MYLK2
  remaining activity at 10 µM: 60%
p70S6K/RPS6KB1
  remaining activity at 10 µM: 92.1%
RET
  remaining activity at 10 µM: 79.5%
IRAK2
  remaining activity at 10 µM: 97.5%
VRK2
  remaining activity at 10 µM: 96.6%
CDK17/cyclin Y (PCTK2)
  remaining activity at 10 µM: 7.25%
PKCzeta
  remaining activity at 10 µM: 90.2%
PKG1b
  remaining activity at 10 µM: 97.6%
DYRK1B
  remaining activity at 10 µM: 3.19%
PKD2/PRKD2
  remaining activity at 10 µM: 72.3%
EPHB4
  remaining activity at 10 µM: 23.2%
TIE2/TEK
  remaining activity at 10 µM: 34.8%
CDK2/cyclin E2
  remaining activity at 10 µM: 9.78%
GSK3a
  remaining activity at 10 µM: 10.6%
STK25/YSK1
  remaining activity at 10 µM: 23.1%
FAK/PTK2
  remaining activity at 10 µM: 52.5%
ALK
  remaining activity at 10 µM: 59.7%
ROS/ROS1
  remaining activity at 10 µM: 27.8%
PRKX
  remaining activity at 10 µM: 79.2%
AXL
  remaining activity at 10 µM: 44.2%
PLK3
  remaining activity at 10 µM: 94.4%
ZIPK/DAPK3
  remaining activity at 10 µM: 80.8%
LYN B
  remaining activity at 10 µM: 54.4%
CDK1/cyclin A
  remaining activity at 10 µM: 4.65%
VRK1
  remaining activity at 10 µM: 87.3%
SSTK/TSSK6
  remaining activity at 10 µM: 86.9%
Haspin
  remaining activity at 10 µM: 79.4%
CDK2/cyclin O
  remaining activity at 10 µM: 0.54%
EPHA5
  remaining activity at 10 µM: 5.86%
CAMKK2
  remaining activity at 10 µM: 10.6%
CLK4
  remaining activity at 10 µM: 28.7%
CDK3/cyclin E
  remaining activity at 10 µM: 0.99%
GRK1
  remaining activity at 10 µM: 76.3%
PKCa
  remaining activity at 10 µM: 62.4%
FLT4/VEGFR3
  remaining activity at 10 µM: 10%
NEK5
  remaining activity at 10 µM: 83.8%
PKCb2
  remaining activity at 10 µM: 39.6%
cyclinK
  cyclinK degradation: induced cyclinK degradation
cyclinK; listed as Compound 53
  cyclinK degradation: cyclinK levels were greatly suppressed in a dose-dependent manner
